From patent US20060116368A1, “4-Piperidinecarboxamide modulators of vanilloid VR1 receptor” (priority 2004, published 2006)

Molecular target: T1, Human Vanilloid Receptor 1 (Homo sapiens, UniProt Q8NER1)
T1 construct: expressed in transfected cells; host or cells: HEK 293
Experiment: Human VR1 functional assay using FLIPR, Protocol 1
Format: cell-based
Conditions: for inhibition at 9 µM: HEK293, 9 uM, inhibition of capsaicin (EC80)-induced calcium response, HEK 293 cells transfected with hVR1, read-out: h % I (9 uM); for IC50: decreased capsaicin (EC80)-induced calcium response, HEK 293 hVR1, read-out: h IC50; for Emax at 12.2 µM: HEK293, 12.2 uM, test compound-induced calcium response (agonist mode), HEK 293 hVR1, read-out: % maximal reponse to capsaicin (12.2 uM); for EC50: test compound-induced calcium response at the 5-minute time point, HEK 293 hVR1, read-out: h EC50
Description: The functional activity of the test compounds was determined by measuring changes in intracellular calcium concentration using FLIPR™ Calcium-3 Assay Kit and FLIPR™ technology.
HEK 293 cells transfected with Human Vanilloid Receptor 1 were maintained at 37° C. and 5% CO2 in: Dulbecco's Modification of Eagle's Medium (high glucose, L-glutamine, pyridoxine HCl, No sodium pyruvate), 10% FBS, 1× Penicillin-Streptomycin-Amphotericin B, 200 ug/mL zeocin. Approximately 24 hours prior to assay, 30,000 cells/well were plated onto a 384-well black clear bottom poly-D-lysine-coated assay plate with a well volume of 25 µL using Titertek Multidrop.
On the day of the assay, the medium was dumped and 50 μL 1× dye were loaded using Multidrop. Plates were incubated with dye at 37° C. for 30 minutes followed by 30 minutes incubation at room temperature. Then the plates were assayed by FLIPR™ with 2 additions: 12.5 μL test compound with 5 minutes data acquisition followed by 12.5 μL capsaicin at the EC80 concentration.
The EC50 values of test compounds were calculated based on a test compound-induced calcium response at the 5-minute time point. The IC50 values of compounds were calculated based on a decreased capsaicin-induced calcium response in the presence of test compound.

T1 sequence (Q8NER1 whole entry): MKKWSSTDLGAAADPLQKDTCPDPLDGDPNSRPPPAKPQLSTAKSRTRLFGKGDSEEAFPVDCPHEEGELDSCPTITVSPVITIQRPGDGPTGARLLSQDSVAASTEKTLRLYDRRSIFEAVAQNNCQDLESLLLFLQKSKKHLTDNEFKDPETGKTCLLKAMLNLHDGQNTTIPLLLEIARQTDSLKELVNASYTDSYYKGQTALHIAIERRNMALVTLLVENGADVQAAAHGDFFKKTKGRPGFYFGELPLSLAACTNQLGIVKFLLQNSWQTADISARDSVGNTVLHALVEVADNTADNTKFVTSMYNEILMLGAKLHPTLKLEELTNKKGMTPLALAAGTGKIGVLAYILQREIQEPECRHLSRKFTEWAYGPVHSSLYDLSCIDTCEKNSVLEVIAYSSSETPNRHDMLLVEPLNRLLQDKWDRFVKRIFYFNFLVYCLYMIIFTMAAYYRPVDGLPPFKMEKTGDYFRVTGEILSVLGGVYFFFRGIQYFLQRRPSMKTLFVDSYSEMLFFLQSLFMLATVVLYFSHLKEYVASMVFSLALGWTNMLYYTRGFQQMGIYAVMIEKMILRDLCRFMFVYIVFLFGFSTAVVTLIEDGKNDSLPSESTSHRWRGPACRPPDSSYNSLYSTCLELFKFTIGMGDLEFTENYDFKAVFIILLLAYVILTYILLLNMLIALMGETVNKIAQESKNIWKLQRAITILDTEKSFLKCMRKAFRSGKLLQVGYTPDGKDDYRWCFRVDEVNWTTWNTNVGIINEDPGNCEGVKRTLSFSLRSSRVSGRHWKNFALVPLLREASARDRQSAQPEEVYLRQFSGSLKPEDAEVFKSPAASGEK

| inhibition at 9 µM | IC50 | Emax at 12.2 µM | EC50 | SMILES |
| --- | --- | --- | --- | --- |
| 100% | 0.29 µM | – | – | O=C1COc2ccc(NC(=O)C3CCN(c4cc(C(F)(F)F)ccc4C(F)(F)F)CC3)cc2N1 [Example 166, 1-(2,5-Bis-trifluoromethyl-phenyl)-piperidine-4-carboxylic acid (3-oxo-3,4-dihydro-2H-benzo[1,4]oxazin-6-yl)-amide] |
| 46.5% | 2.64 µM | – | – | CC(=O)N1c2cc(NC(=O)C3CCN(c4cccc(C(F)(F)F)c4)CC3)ccc2CC1C (stereo not drawn) [Example 37, 1-(3-Trifluoromethyl-phenyl)-piperidine-4-carboxylic acid (1-acetyl-2-methyl-2,3-dihydro-1H-indol-6-yl)-amide] |
| 19.7% | – | – | – | N#Cc1ccc(C(F)(F)F)cc1N1CCC(C(=O)Nc2ccc3c(c2)NC(=O)CO3)CC1 [Example 163, 1-(2-Cyano-5-trifluoromethyl-phenyl)-piperidine-4-carboxylic acid (3-oxo-3,4-dihydro-2H-benzo[1,4]oxazin-6-yl)-amide] |
| – | – | 74% | 0.85 µM | COc1ccc(NC(=O)C2CCN(c3cccc(C(F)(F)F)c3)CC2)cn1 [Example 25, 1-(3-Trifluoromethyl-phenyl)-piperidine-4-carboxylic acid (6-methoxy-pyridin-3-yl)-amide] |
| 85% | 1.81 µM | – | – | O=C1COc2ccc(NC(=O)C3CCN(c4ccccc4)CC3)cc2N1 [Example 139, 1-Phenyl-piperidine-4-carboxylic acid (3-oxo-3,4-dihydro-2H-benzo[1,4]oxazin-6-yl)-amide] |
| 33% | – | – | – | O=C1COc2cc(NC(=O)C3CCN(c4cccc(C(F)(F)F)c4)CC3)ccc2N1 [Example 44, 1-(3-Trifluoromethyl-phenyl)-piperidine-4-carboxylic acid (3-oxo-3,4-dihydro-2H-benzo[1,4]oxazin-7-yl)-amide] |
| 13% | – | – | – | CC(=O)N1CCc2cc(NC(=O)C3CCN(c4cccc(C(F)(F)F)c4)CC3)ccc21 [Example 29, 1-(3-Trifluoromethyl-phenyl)-piperidine-4-carboxylic acid (1-acetyl-2,3-dihydro-1H-indol-5-yl)-amide] |
| – | – | 35.5% | 2.55 µM | O=C(Nc1ccc2nc(S)sc2c1)C1CCN(c2cccc(C(F)(F)F)c2)CC1 [Example 26, 1-(3-Trifluoromethyl-phenyl)-piperidine-4-carboxylic acid (2-mercapto-benzothiazol-6-yl)-amide] |
| 19% | – | – | – | O=C(Nc1ccc2cc[nH]c2c1)C1CCN(c2cccc(C(F)(F)F)c2)CC1 [Example 23, 1-(3-Trifluoromethyl-phenyl)-piperidine-4-carboxylic acid (1H-indol-6-yl)-amide] |
| 90.3% | 0.1 µM | – | – | Cc1c(Cl)cccc1N1CCC(C(=O)Nc2ccc3c(c2)NC(=O)CO3)CC1 [Example 157, 1-(3-Chloro-2-methyl-phenyl)-piperidine-4-carboxylic acid (3-oxo-3,4-dihydro-2H-benzo[1,4]oxazin-6-yl)-amide] |
| 91.3% | 0.33 µM | – | – | O=C1COc2ccc(NC(=O)C3CCN(c4cccc(Br)c4)CC3)cc2N1 [Example 149, 1-(3-Bromo-phenyl)-piperidine-4-carboxylic acid (3-oxo-3,4-dihydro-2H-benzo[1,4]oxazin-6-yl)-amide] |
| 78% | 1.07 µM | – | – | O=C(Nc1ccc2[nH]ccc2c1)C1CCN(c2cccc(C(F)(F)F)c2)CC1 [Example 22, 1-(3-Trifluoromethyl-phenyl)-piperidine-4-carboxylic acid (1H-indol-5-yl)-amide] |
| – | – | 62.8% | 0.32 µM | O=C1Cc2ccc(NC(=O)C3CCN(c4cccc(C(F)(F)F)c4)CC3)cc2N1 [Example 38, 1-(3-Trifluoromethyl-phenyl)-piperidine-4-carboxylic acid (2-oxo-2,3-dihydro-1H-indol-6-yl)-amide] |
| 37% | – | – | – | N#Cc1c(N2CCC(C(=O)Nc3ccc4c(c3)NC(=O)CO4)CC2)cccc1C(F)(F)F [Example 162, 1-(2-Cyano-3-trifluoromethyl-phenyl)-piperidine-4-carboxylic acid (3-oxo-3,4-dihydro-2H-benzo[1,4]oxazin-6-yl)-amide] |

Second part, the compound before the results:

| SMILES | inhibition at 9 µM | IC50 | Emax at 12.2 µM | EC50 |
| --- | --- | --- | --- | --- |
| Cc1cc(Cl)nnc1NC(=O)C1CCN(c2cccc(C(F)(F)F)c2)CC1 [Example 51, 1-(3-Trifluoromethyl-phenyl)-piperidine-4-carboxylic acid (6-chloro-4-methyl-pyridazin-3-yl)-amide] | 8% | – | – | – |
| CCOC(=O)c1c(C)nn(-c2ccc(NC(=O)C3CCN(c4cccc(C(F)(F)F)c4)CC3)cn2)c1C [Example 36, 3,5-Dimethyl-1-(5-{[1-(3-trifluoromethyl-phenyl)-piperidine-4-carbonyl]-amino}-pyridin-2-yl)-1H-pyrazole-4-carboxylic acid ethyl ester] | 14% | – | – | – |
| O=C(Nc1ccc2c(c1)N(CCO)C(=O)CO2)C1CCN(c2cccc(C(F)(F)F)c2)CC1 [Example 168, 1-(3-Trifluoromethyl-phenyl)-piperidine-4-carboxylic acid [4-(2-hydroxy-ethyl)-3-oxo-3,4-dihydro-2H-benzo[1,4]oxazin-6-yl]-amide] | 59.6% | – | – | – |
| O=C(Nc1ccc(O)c2ncccc12)C1CCN(c2cccc(C(F)(F)F)c2)CC1 [Example 27, 1-(3-Trifluoromethyl-phenyl)-piperidine-4-carboxylic acid (8-hydroxy-quinolin-5-yl)-amide] | 13% | – | – | – |
| O=C(Nc1cccc2cn[nH]c12)C1CCN(c2cccc(C(F)(F)F)c2)CC1 [Example 11, 1-(3-Trifluoromethyl-phenyl)-piperidine-4-carboxylic acid (1H-indazol-7-yl)-amide] | 72% | 2.84 µM | – | – |
| O=C(Nc1nsc2ccc([N+](=O)[O-])cc12)C1CCN(c2cccc(C(F)(F)F)c2)CC1 [Example 20, 1-(3-Trifluoromethyl-phenyl)-piperidine-4-carboxylic acid (5-nitro-benzo[d]isothiazol-3-yl)-amide] | 2.5% | – | – | – |
| CN(C)c1nc(NC(=O)C2CCN(c3cccc(C(F)(F)F)c3)CC2)ncc1-c1ccccc1 [Example 35, 1-(3-Trifluoromethyl-phenyl)-piperidine-4-carboxylic acid (4-dimethylamino-5-phenyl-pyrimidin-2-yl)-amide] | 14% | – | – | – |
| Cc1cc(C)c2c(NC(=O)C3CCN(c4cccc(C(F)(F)F)c4)CC3)csc2n1 [Example 41, 1-(3-Trifluoromethyl-phenyl)-piperidine-4-carboxylic acid (4,6-dimethyl-thieno[2,3-b]pyridin-3-yl)-amide] | 12% | – | – | – |
| O=C(Nc1cc(-c2ccco2)n[nH]1)C1CCN(c2cccc(C(F)(F)F)c2)CC1 [Example 47, 1-(3-Trifluoromethyl-phenyl)-piperidine-4-carboxylic acid (5-furan-2-yl-2H-pyrazol-3-yl)-amide] | 12% | – | – | – |
| O=C1COc2ccc(NC(=O)C3CCN(c4c(F)c(F)c(Br)c(F)c4F)CC3)cc2N1 [Example 164, 1-(4-Bromo-2,3,5,6-tetrafluoro-phenyl)-piperidine-4-carboxylic acid (3-oxo-3,4-dihydro-2H-benzo[1,4]oxazin-6-yl)-amide] | 87% | 0.11 µM | – | – |
| Cc1cc(Oc2ccccc2)nc(NC(=O)C2CCN(c3cccc(C(F)(F)F)c3)CC2)n1 [Example 43, 1-(3-Trifluoromethyl-phenyl)-piperidine-4-carboxylic acid (4-methyl-6-phenoxy-pyrimidin-2-yl)-amide] | 10% | – | – | – |
